“Also recorded” adds a separate entry of the source.
What was measured:
[1] = Body weight and overt toxicity in tumor-bearing mice; settings: alone or in combination
Protocol: Female athymic nude mice weighing no less than 20-21 grams were inoculated subcutaneously in the left inguinal region of the thigh with 5×10^6 tumor cells in a delivery volume of 0.2 mL. For regression studies, the tumors were allowed to grow to a pre-determined size prior to initiation of dosing. […] Mice were dosed orally by gavage with vehicle (control group) or compound at various doses twice-daily (b.i.d.) during the week and once-daily (q.d.) on weekends. […] If tumors in the control mice reached ˜10% of body weight (˜2.0 grams), the study was to be terminated. […] During the study, tumor growth was measured three times-a-week (M, W, F) using electronic Vernier calipers. Tumor volume (mm^3) was calculated using the formula […], where L=length (mm) and W=width (shortest distance in mm) of the tumor. […]
Female athymic nude mice weighing no less than 20-21 grams were inoculated subcutaneously in the left inguinal region of the thigh with 5×10^6 tumor cells in a delivery volume of 0.2 mL. For regression studies, the tumors were allowed to grow to a pre-determined size prior to initiation of dosing. […] During the study, tumor growth was measured three times-a-week (M, W, F) using electronic Vernier calipers. Tumor volume (mm^3) was calculated using the formula […], where L=length (mm) and W=width (shortest distance in mm) of the tumor. […]

MV4-11 tumor xenografts = test: MV4-11 human tumor xenograft regression model; format: in vivo, nude mice; settings: Tipifarnib alone 50 mg/kg po
Protocol: Female athymic nude mice (CD-1, nu/nu, 9-10 weeks old) were obtained from Charles River Laboratories (Wilmington, Mass.) and were maintained according to NIH standards. All mice were group housed (5 mice/cage) under clean-room conditions in sterile micro-isolator cages on a 12-hour light/dark cycle in a room maintained at 21-22° C. and 40-50% humidity. Mice were fed irradiated standard rodent diet and water ad libitum. All animals were housed in a Laboratory Animal Medicine facility that is fully accredited by the American Association for Assessment and Accreditation of Laboratory Animal Care (AAALAC). […]
The time course of the inhibitory effects of FLT3 inhibitor compounds on the growth of MV4-11 tumors is illustrated in FIG. 1. […] Percent inhibition (% I) of tumor growth was calculated versus tumor growth in the vehicle-treated Control group on the last study day.
Statistical significance versus Control was determined by Analysis of Variance (ANOVA) followed by Dunnett's t-test: * p<0.05; ** p<0.01.
(See FIG. 2). […] Percent Inhibition was calculated versus the mean tumor weight in the vehicle-treated control group. Statistical significance versus Control was determined by ANOVA followed by Dunnett's t-test: ** p<0.01. […]

MV4-11 AML cells = test: Cell proliferation assay and combination index analysis, MV4-11; format: cell-based, human; settings: single agent; depending on the cell type
Text: (§1) All data points are an average of triplicate samples.
as §1

[2] = cited from earlier work
MV4-11 cells = test: Inhibition of MV4-11 cell proliferation (CellTiterGlo, 72 h); format: cell-based; settings: Homo sapiens; 72 h growth inhibition
Procedure, shortened: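 MV4-11 (FLT3-ITD) cells, 10,000/well in RPMI/10% FBS with 1 ng/ml GM-CSF, treated 72 h at 37 °C; some runs in 1:1 medium/human plasma. Growth read as ATP luminescence; 100% inhibition = Day 0 RLU, 0% = DMSO at Day 3. IC50 from sigmoidal variable-slope fit of triplicates.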

[3] = target: T1, isolated kinase domain of the human FLT3 receptor (a.a. 571-993) (Homo sapiens, UniProt P36888); test: FLT3 fluorescence polarization kinase assay; format: biochemical
T1 construct: human FLT3 receptor (a.a. 571-993)
T1 sequence (P36888 571-993): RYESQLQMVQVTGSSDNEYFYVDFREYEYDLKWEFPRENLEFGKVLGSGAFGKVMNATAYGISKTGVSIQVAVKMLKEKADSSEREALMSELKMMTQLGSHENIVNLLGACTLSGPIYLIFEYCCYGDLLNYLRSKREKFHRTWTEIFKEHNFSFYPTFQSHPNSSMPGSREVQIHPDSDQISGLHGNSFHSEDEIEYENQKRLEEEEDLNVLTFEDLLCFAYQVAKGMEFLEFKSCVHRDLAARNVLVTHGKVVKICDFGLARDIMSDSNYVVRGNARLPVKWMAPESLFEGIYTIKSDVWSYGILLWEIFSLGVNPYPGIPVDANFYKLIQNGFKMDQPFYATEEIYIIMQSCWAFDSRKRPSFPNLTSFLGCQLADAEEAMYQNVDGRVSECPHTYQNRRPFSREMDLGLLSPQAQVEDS
Text: The FLT3 FP assay utilizes the fluorescein-labeled phosphopeptide and the anti-phosphotyrosine antibody included in the Panvera Phospho-Tyrosine Kinase Kit (Green) supplied by Invitrogen. When FLT3 phosphorylates polyGlu4Tyr, the fluorescein-labeled phosphopeptide is displaced from the anti-phosphotyrosine antibody by the phosphorylated poly Glu4Tyr, thus decreasing the FP value. […] The kinase reaction is stopped with the addition of EDTA. The fluorescein-labeled phosphopeptide and the anti-phosphotyrosine antibody are added and incubated for 30 minutes at room temperature.
All data points are an average of triplicate samples. Inhibition and IC50 data analysis was done with GraphPad Prism using a non-linear regression fit with a multiparamater, sigmoidal dose-response (variable slope) equation.

[4] = multicenter Phase II trial, relapsed AML
[5] = patients with relapsed and refractory AML

Row | SMILES | overt toxicity ([1]; 9-day treatment) | overt toxicity ([1]; 16-day treatment) | effect on tumor volume vs control (MV4-11 tumor xenografts; 9 days, Day 9) | effect on tumor growth (MV4-11 tumor xenografts; 16 days) | potency range (MV4-11 AML cells) | >50% reduction in bone marrow blasts [2, 4] | complete responses (bone marrow blasts <5%) [2, 4] | patients achieving complete remission [2, 5] [patients] | response rate [2, 5] [%] | IC50 (MV4-11 cells) [µM] | IC50 [3] [µM]
1 | Cn1cncc1C(N)(c1ccc(Cl)cc1)c1ccc2c(c1)c(-c1cccc(Cl)c1)cc(=O)n2C (single isomer, unassigned; (+)) [Tipifarnib, (+)-6-[amino(4-chlorophenyl)(1-methyl-1H-imidazol-5-yl)methyl]-4-(3-chlorophenyl)-1-methyl-2(1H)-quinolinone] | No overt toxicity | No overt toxicity | not significantly reduced; also recorded: ineffective | ineffective | high nanomolar to high picomolar range | 31 of 50 | 17 of 50 | 2 | ~30 | – | –
2 | CC(C)Oc1ccc(NC(=O)NC2CCN(c3ccnc4ccccc34)C2)cc1 (stereo not shown) [Compound 38, (4-Isopropoxy-phenyl)-3-(1-quinolin-4-yl)-pyrrolidin-3-yl-urea] | – | – | – | – | – | – | – | – | – | > 3 | 3.15
3 | CC(C)Oc1ccc(NC(=O)OC2CCN(c3ccnc4ccccc34)C2)cc1 (stereo not shown) [Compound 39] | – | – | – | – | – | – | – | – | – | > 10 | 7.14

Source: patent US20060281771A1, “SYNERGISTIC MODULATION OF FLT3 KINASE USING AMINOQUINOLINE AND AMINOQUINAZOLINE KINASE MODULATORS” (priority 2005, published 2006)
